Measured values from patent publication US5021408A, “Hydrocortisone-17-oxo-21-thioesters, their preparation and their uses as medicaments” (Jouveinal S.A., priority 1983, dated 1991).
Where two headings read alike, the source gives them in different places.

Key:
[1] = system: inflammation of the ear in the mouse; assay: Local anti-inflammatory activity, croton oil ear inflammation (method derived from Tonelli); format: in vivo; details: for Anti-inflammatory activity EC50: mouse ear, croton oil, concentration giving 50% reduction in inflammation vs controls; for Anti-inflammatory activity: Activity/ref. 21 act. hydro: relative to hydrocortisone-21-acetate = 1
Description: I.1. Local anti-inflammatory activity
This study was carried out in accordance with a method derived from that of Tonelli (Endocrinology, Vol. 77, page 625, 1965).
The test consists of causing inflammation of the ear in the mouse using a croton oil-based irritating solution.
The addition of a local anti-inflammatory substance to this solution leads to a reduced inflammation action compared with that of the controls, i.e. treated with the irritating solution only.
The results of the study are expressed in EC50, which is the p/v % concentration of the dissolved product able to bring about a 50% reduction in the inflammation compared with that caused in the controls.

[2] = Systemic (thymolytic) activity, thymus weight reduction after oral administration; format: in vivo, rat (Wistar); details: rat
Description: (§1) Determination of systemic activity side effects
(§2) These effects were evaluated by means of their thymolytic activity.
(§3) The repeated administration of systemic activity products leads to a weakening of the defence systems of the organism. More especially in young animals, this leads to a reduction in the weight of two organs of the reticuloendothelial system, namely the spleen and the thymus, the latter being the most sensitive to this effect.
(§4) This activity was determined by means of a study of the activity of products on the weight reduction of the thymus of animals.
(§5) The product to be studied, suspended in 5% p/v gum arabic were orally administered daily for four consecutive days to young rats of the Wistar strain. Under the same conditions, a control batch of animals received an identical volume of the excipient.
(§6) 96 hours after the first administration, the animals were killed and their thymus removed and immediately weighed.
(§7) The results of the study are expressed in ED50, which corresponds to the daily dose in milligrams able to bring about a 50% thymus weight reduction for 1 kilogram animal weight, compared with the controls (mg/kg^-1 /day^-1).

thymus weight = assay: as above; format: in vivo, rat (Wistar)
Description: as §1, §2, §3, §4, §5, §6, §7

[3] = Dissociation ratio R local anti-inflammatory activity / systemic activity; format: in vivo, mouse (ear inflammation) and rat (thymus); details: lower value = greater dissociation of activities
Description: The results obtained by this study make it possible to calculate the activity ratio:
local anti-inflammatory activity
The value of this ratio indicates the dissociation of the activities and is inversely proportional to the size of the dissociation, i.e. the lower this value, the greater the dissociation.
This value was calculated on the basis of the expression: [formula]

granuloma = details: according to N. Bodor; cited from earlier work
erythema = details: reported by O. J. Lorenzetti; cited from earlier work
[4] = young Wistar rats, oral, daily for four consecutive days, 50% thymus weight reduction vs controls, read-out: Systemic activity ED50
[5] = relative to hydrocortisone-21-acetate = 1

ED50 at 96 h [2, 4]	Systemic activity: Activity/ref. 21 act. hydro (thymus weight; [5])	SMILES	Anti-inflammatory activity EC50 [1]	Anti-inflammatory activity: Activity/ref. 21 act. hydro [1]	ED50 at 96 h ([2]; in vivo, po)	Systemic activity: Activity/ref. 21 act. hydro (thymus weight; rat, in vivo, 5760 min)	R (local anti-inflammatory activity / systemic activity) [3]	ED50 at 96 h ([2]; in vivo, young Wistar rats, oral, daily for four consecutive days, 50% thymus weight reduction vs controls, read-out: Systemic activity ED50)	systemic activity, times lower than that of prednisolone-21-thioacetate-17-valerate (thymus weight; rat, in vivo, po, 5760 min)	activity in the granuloma test (granuloma)	activity in the erythema test compared with the vasoconstriction test (erythema)
		CCCCC(=O)O[C@]1(C(=O)CSC(C)=O)CC[C@H]2[C@@H]3C[C@H](C)C4=CC(=O)C=C[C@]4(C)[C@H]3[C@@H](O)C[C@@]21C [6-α-methylprednisolone-21-thioacetate-17-valerate]	0.5 % p/v	0.6	43 mg/kg	0.325	116.3				
		CC(=O)O[C@]1(C(=O)CSC(=O)CC(C)(C)C)[C@H](C)C[C@H]2[C@@H]3CCC4=CC(=O)C=C[C@]4(C)[C@@]3(F)[C@@H](O)C[C@@]21C [dexamethasone-21-thiotertiobutylacetate-17-acetate]	0.0092 % p/v	32.6	3 mg/kg	4.67	30.7				
		CCCCC(=O)O[C@]1(C(=O)CSC(C)=O)CC[C@H]2[C@@H]3CCC4=CC(=O)C=C[C@]4(C)[C@H]3[C@@H](O)C[C@@]21C [Prednisolone-21-thioacetate-17-valerate]	0.008 % p/v	37.5	58 mg/kg	0.24	1.38				
		CCCC(=O)O[C@]1(C(=O)CSC(=O)CC)CC[C@H]2[C@@H]3CCC4=CC(=O)CC[C@]4(C)[C@H]3[C@@H](O)C[C@@]21C [Example 2, 3,20-dione-11β-hydroxypregn-4-ene-21-thiopropionate-17-butyrate]	0.021 % p/v	14.3	> 1450 mg/kg	< 0.0096	0.14				
14 mg/kg	1	CC(=O)OCC(=O)[C@@]1(O)CC[C@H]2[C@@H]3CCC4=CC(=O)CC[C@]4(C)[C@H]3[C@@H](O)C[C@@]21C [hydrocortisone-21-acetate]	0.30 % p/v	1			214				
7.2 mg/kg	1.95	CCCC(=O)O[C@]1(C(=O)COC(=O)CC)CC[C@H]2[C@@H]3CCC4=CC(=O)CC[C@]4(C)[C@H]3[C@@H](O)C[C@@]21C [Hydrocortisone-21-propionate-17-butyrate, hydrocortisone-21-propionate-17-butyrate]	0.0047 % p/v	63.8			6.52				
		CCC(=O)O[C@]1(C(=O)CSC(=O)CC)[C@@H](C)C[C@H]2[C@@H]3CCC4=CC(=O)C=C[C@]4(C)[C@@]3(F)[C@@H](O)C[C@@]21C [betamethasone-21-thiopropionate-17-propionate]	0.0013 % p/v	231	3 mg/kg	4.66	4.33				
		CCC(=O)O[C@]1(C(=O)CSC(C)=O)[C@@H](C)C[C@H]2[C@@H]3CCC4=CC(=O)C=C[C@]4(C)[C@@]3(F)[C@@H](O)C[C@@]21C [betamethasone-21-thioacetate-17-propionate]	0.010 % p/v	30.0	2.5 mg/kg	5.60	40.0				
		CCCC(=O)O[C@]1(C(=O)CSC(C)=O)CC[C@H]2[C@@H]3CCC4=CC(=O)CC[C@]4(C)[C@H]3[C@@H](O)C[C@@]21C [Example 1, 3,20-dione-11β-hydroxypregn-4-ene-21-thioacetate-17-butyrate]	0.0082 % p/v	36.6	350 mg/kg	0.04	0.23		6 times		
		CCCC(=O)O[C@]1(C(=O)CO)CC[C@H]2[C@@H]3CCC4=CC(=O)CC[C@]4(C)[C@H]3[C@@H](O)C[C@@]21C [hydrocortisone-17-butyrate]								only has a limited activity in the granuloma test	good similarity of activity compared with the vasoconstriction test
		CCC(=O)O[C@]1(C(=O)CSC(=O)CC)[C@@H](C)C[C@H]2[C@@H]3CCC4=CC(=O)C=C[C@]4(C)[C@@]3(Cl)[C@@H](O)C[C@@]21C [beclomethasone-21-thiopropionate-17-propionate]	0.0175 % p/v	17.1	19 mg/kg	0.74	9.21				
		CCC(=O)SCC(=O)[C@@]1(OC(C)=O)[C@@H](C)C[C@H]2[C@@H]3CCC4=CC(=O)C=C[C@]4(C)[C@@]3(F)[C@@H](O)C[C@@]21C [betamethasone-21-thiopropionate-17-acetate]	0.012 % p/v	25.0	2.4 mg/kg	5.83	50.0				
		CCCCC(=O)O[C@]1(C(=O)COC(C)=O)CC[C@H]2[C@@H]3CCC4=CC(=O)C=C[C@]4(C)[C@H]3[C@@H](O)C[C@@]21C [Prednisolone-21-acetate-17-valerate, prednisolone-21-acetate-17-valerate]	0.0018 % p/v	167	9 mg/kg	1.60	2.0				

SMILES	ED50 at 96 h [2, 4]	Systemic activity: Activity/ref. 21 act. hydro (thymus weight; [5])	Anti-inflammatory activity EC50 [1]	Anti-inflammatory activity: Activity/ref. 21 act. hydro [1]	ED50 at 96 h ([2]; in vivo, po)	Systemic activity: Activity/ref. 21 act. hydro (thymus weight; rat, in vivo, 5760 min)	R (local anti-inflammatory activity / systemic activity) [3]	ED50 at 96 h ([2]; in vivo, young Wistar rats, oral, daily for four consecutive days, 50% thymus weight reduction vs controls, read-out: Systemic activity ED50)	systemic activity, times lower than that of prednisolone-21-thioacetate-17-valerate (thymus weight; rat, in vivo, po, 5760 min)	activity in the granuloma test (granuloma)	activity in the erythema test compared with the vasoconstriction test (erythema)
CC(C)(C)C(=O)SCC(=O)[C@@]1(O)CC[C@H]2[C@@H]3CCC4=CC(=O)CC[C@]4(C)[C@H]3[C@@H](O)C[C@@]21C [Hydrocortisone-21-thiopivalate, hydrocortisone-21-thiopivalate]		0.0038	2.5 % p/v	0.12			6.90	3600 mg/kg			
